Literature values in patent publication US7572882B2 (priority 2000, dated 2009).

Key:
[1] = test system: HLA-DR alleles
[2] = test system: T helper lymphocytes; conditions: regardless of HLA type

## aKXVAAWTLKAAa
[1]
  binding to HLA-DR alleles: bind to most HLA-DR alleles
[2]
  stimulation of the response of T helper lymphocytes: stimulate the response of T helper lymphocytes from most individuals
